Source: ChEMBL document CHEMBL4024741, “A minimalistic tetrapeptide amphiphile scaffold for transmembrane pores with a preference for sodium” (Bioorg Med Chem Lett, 2017)
The source made the active and inactive calls. No cut-off for these calls is given here.

What was measured:
[1] = Effect on membrane integrity in EYPC/cholesterol vesicles at 40 uM by dynamic light scattering method; assay type: ADME
[2] = Binding affinity to potassium ion in HPTS dye encapsulated EPYC/cholesterol vesicles assessed as increase in internal pH at 5 mol% of lipid after 2 mins in presence of KOH loaded external vesicles by fluorescence spectroscopic analysis (reference value: 5.6 +/- 1.2 10^-3/s)
[3] = Binding affinity to lithium ion in HPTS dye encapsulated EPYC/cholesterol vesicles assessed as increase in internal pH at 5 mol% of lipid after 2 mins in presence of LiOH loaded external vesicles by fluorescence spectroscopic analysis (reference value: 5.6 +/- 1.2 10^-3/s)
[4] = Binding affinity to sodium ion in HPTS dye encapsulated EPYC/cholesterol vesicles assessed as increase in internal pH at 5 mol% of lipid after 2 mins in presence of NaOH loaded external vesicles by fluorescence spectroscopic analysis (reference value: 5.6 +/- 1.2 10^-3/s)
[5] = Binding affinity to potassium ion in 1,2-diphytanoyl-sn-glycero-3-phosphocholine based bilayer membrane assessed as reversal of membrane potential at 0.1 mg/ml in presence of KCl loaded cis membrane
[6] = Binding affinity to sodium ion in HPTS dye encapsulated EPYC/cholesterol vesicles assessed as increase in internal pH at 20 uM after 2 mins in presence of NaOH loaded external vesicles by fluorescence spectroscopic analysis
[7] = Binding affinity to potassium ion in 1,2-diphytanoyl-sn-glycero-3-phosphocholine based bilayer membrane assessed as increase in membrane current at 0.1 mg/ml in presence of KCl loaded cis membrane
[8] = Binding affinity to sodium ion in lucigenin/NaCl encapsulated EPYC/cholesterol vesicle at 10 mol% of lipid by fluorescence spectroscopic method
[9] = Binding affinity to sodium ion in lucigenin/NaCl encapsulated EPYC/cholesterol vesicle by fluorescence spectroscopic method

SMILES	Activity [1]	K [2] [×10⁻³ /s]	K [3] [×10⁻³ /s]	K [4] [×10⁻³ /s]	Activity [5] [mV]	Activity [6]	Activity [7] [pA]	K [8] [×10⁻³ /s]	EC50 [9] [mol%]
CCCCCCCCCCCCCC(=O)N[C@@H](C)C(=O)N[C@H](C)C(=O)N[C@@H](C)C(=O)Nc1cccc(C(=O)OC)n1	Non-Toxic	15.3	14.3	12.4	–	–	–	–	–
CCCCCCCCCCCCCC(=O)N[C@@H](C)C(=O)Nc1cccc(C(=O)N[C@@H](C)C(=O)N[C@H](C)C(=O)OCCOCCOCC)n1	Non-Toxic	–	–	–	-14.9	Active	40	–	–
CCCCCCCCCCCCCC(=O)N[C@@H](C)C(=O)N[C@H](C)C(=O)N[C@@H](C)C(=O)Nc1cccc(C(=O)OCCOCCOCC)n1	Non-Toxic	15.8	17.5	28.9	-10.8	–	30	9.7	0.94
